# According to patent US11746103B2, “ALK-5 inhibitors and uses thereof” (Sumitomo Pharma Oncology, Inc., priority 2020, dated 2023):
# Like-named read-outs stand apart in the source and are kept apart here.
# Columns and labels:
# [1] = tested on: bleomycin-induced lung fibrosis; assay: Bleomycin-induced lung fibrosis study; format: in vivo, mouse
# From the text: Fibrosis, the formation of excess connective tissue causing stromal hardening and scar formation is a hallmark of cancer. Up to 20% of cancers are linked to chronic, inflammation-related fibrosis, including hepatocellular, gastric, esophageal, head and neck, colon, pancreatic, cervix, and vulvar cancers. The contribution of fibrosis for early cancer development remains unclear; however, in some advanced solid tumors it is believed that fibrotic tissues act like a barrier, preventing therapeutic agents like chemotherapy or biologics from penetrating the tumor tissue. Additionally, strong fibrotic tissue is thought to contribute to excluding immune cells from entering the tumor core, creating immune excluded or immune desert phenotypes. To evaluate the anti-fibrotic properties of Ex-11, a prophylactic model of bleomycin-induced lung fibrosis in male C57BL/6 mice was utilized, and various endpoints evaluated.
# All mice in this study were 8-week-old male C57BL/6 mice purchased from Taconic. On Day −2 prior to bleomycin administration, all animals were weighed and distributed into groups with 10 mice each (Table 18) such that each group of animals contained animals of similar body weights.
# On day 0, animals were treated with 1.5 U/kg bleomycin (Blenoxane catalog number NDC 61703-323-22, Hospira Pharmaceutical) intratracheally, except Group 1, which was administered normal saline via oropharyngeal route to serve as the healthy naïve control group. Prophylactic treatment was administered from one day prior to bleomycin administration to day 21 post bleomycin administration. On Day 21, only the morning dose was administered. Animals were harvested on day 21 and lung weights were measured. Body weights of all mice was recorded at least three times a week beginning on Day −2 and ending on the day of harvest, Day 21. Pirfenidone was used as positive control compound, as it is an FDA-approved drug for the treatment of idiopathic pulmonary fibrosis (IPF) in humans. All compounds were prepared in 10% Tween-20 in water; a homogenous suspension was formulated using a magnetic stir bar.
# At the end of the study, total lung tissues were weighed and fixed for histological examination, which was conducted by a trained pathologist blinded to the treatment groups. Specifically, whole lungs from each mouse were paraffin-embedded in a single block. Two slides from each block were sectioned to the depth of the mainstem bronchi (near the center of each lobe) and stained with either hematoxylin and eosin (H&E) or Masson's trichrome (MT). Glass slides were evaluated using light microscopy by a board-certified veterinary pathologist. Lung sections were scored according to the methods described below, evaluating five randomly chosen fields in each tissue. Fixed lungs were sectioned, and consecutive tissue sections were stained with H&E or MT. Various pathological scoring parameters were used to determine the average Ashcroft score, as well as average inflammation and collagen deposition indicating fibrosis.
# Parameter of scoring formalin fixed lung sections:
# Modified Ashcroft Score: H&E-stained lung sections were scored according to the modified Ashcroft scale. Scores for five representative 200× microscopic fields per sample were averaged to obtain a mean score for each animal. […]
# [2] = Description: Female, athymic nude mice (aged 6-8 weeks) were randomized to one of 12 study arms (n=3 per arm) (Table 16) and weighed prior to dosing. Mice were dosed via oral gavage either once daily (QD), or bi-daily (BID) for five days. […] The vehicle for PF-06952229 (PF) was 10% DMSO, 40% PEG300, 5% tween-80, 45% saline. For the vehicle alone group in this study, the PF-06952229 vehicle was used. At the end of each day for 10 days, mice were weighed, and symptoms of toxicity (if present) were recorded. A qualitative determination of overall toxicity was made based on the number and severity of symptoms for each cohort. The safety margin was determined at the end of day 10 based on the following equation: (maximum tolerated dose)/(minimum effective dose).
# [3] = BID; in animal studies; cited from earlier work
# [4] = tested on: COV434 cells; assay: TGFβ induced proliferation, COV434; format: cell-based, human; conditions: TGFβ 1 ng/mL, 7 days, COV434 (FoxL2 wild-type)
# Description: (§1) KGN and COV434 cells were seeded in triplicate in 96 well culture plates and incubated in the presence or absence of TGFβ (1 ng/mL) for 6 or 7 days, respectively. Proliferation was measured by Cell Titer Glo.
# [5] = tested on: KGN cells; assay: TGFβ induced proliferation, KGN; format: cell-based, human; conditions: TGFβ 1 ng/mL, 6 days, KGN (FoxL2 mutant)
# Description: as §1
# [6] = tested on: TGF-β1 mediated alpha-SMA expression in primary human bronchial fibroblasts derived from IPF patients; assay: Fibroblast to Myofibroblast Transformation (FMT) assay
# Description: To test the ability of compounds of the invention to inhibit the TGF-β1 dependent transition of fibroblasts to myofibroblasts in a relevant disease model of IPF, a study was carried out using an FMT assay employing lung fibroblasts from IPF patients. In this model the transition of fibroblasts to myofibroblasts is determined by the expression of the biomarker alpha smooth muscle actin (SMA).
# Each drug concentration condition was evaluated in biological duplicates. One hour after compound addition, cells were stimulated with 1.25 ng/ml of TGF-01 and cultured for 72 hours thereafter. At the end of 72 hours cells were fixed using formaldehyde. The results were generated using high content imaging after staining cells using the nuclear stain DAPI as well as evaluation of the expression of alpha SMA. […] As a negative control 0.1% DMSO was used matching the DMSO concentration in treated wells.
# [7] = tested on: TGF-beta induced SMAD signaling; assay: RDSR (RD SMAD reporter) Cellular Reporter Assay; format: cell-based; conditions: Homo sapiens; 200 pg/ml rhTGF-beta1, 24 h; control compounds; read-out: RDSR reporter activity
# Procedure, shortened: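 Human rhabdomyosarcoma RD cells stably carrying an SBE-driven luc2P luciferase reporter. Inhibition of SMAD signaling was quantified from ONE-Glo luminescence.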
molecule,measurement,setting,value
"Cc1ccc(=O)n(-c2ccccc2)c1 [pirfenidone, reference compound]",animals lost during the study,[1]; 100 mg/kg PO BID,Only one animal in the pirfenidone group was lost
same,total lung weight,"[1]; day 21, vs bleomycin/vehicle",significant decrease in lung weight
same,largest percent change in weight,"[1]; group 4, day 9, average",−1.2%
CC(C)c1cnc(-c2cc(Cl)ccc2F)cc1Nc1ccncc1C(=O)NC(CO)CO [PF-06952229],tolerated dose,[2]; BID,50 mg/kg
same,dose at which mice experienced DLT,"[2]; mouse, in vivo",≥ 150 mg/kg
same,safety margin (maximum tolerated dose)/(minimum effective dose),"[2]; mouse, in vivo",~1.7 fold
same,minimum effective dose,[3],30 mg/kg
TGFβ: TGFβ cytokine used at 1 ng/mL to stimulate KGN and COV434 cells,proliferation (Cell Titer Glo),[4],no change
same,proliferation (Cell Titer Glo),[5],significantly increased
"Cc1cccc(-c2[nH]c(CNc3ccccc3F)nc2-c2ccc3ncnn3c2)n1 [Vactosertib, reference compound]",LogM IC50 αSMA,[6]; donor IPF05,−7.4 LogM
same,Max PIN (%),[6]; donor IPF05,32.7%
same,LogM IC50 αSMA,[6]; donor IPF06,−7.0 LogM
same,Max PIN (%),[6]; donor IPF06,112.1%
same,LogM IC50 αSMA,[6]; donor IPF08,−7.1 LogM
same,Max PIN (%),[6]; donor IPF08,104.0%
same,safety margin (maximum tolerated dose)/(minimum effective dose),"[2]; female, mouse, in vivo, 10 days",3.75-6 fold
same,IC50,[7],~7.9 nM
